Results: patent publication US20220411362A1, “DITERPENOID COMPOUNDS THAT ACT ON PROTEIN KINASE C (PKC)” (K-Gen, Inc., priority 2019, published 2022)

Key:
[1] = target: T1, C1b domain of human PKCδ (Homo sapiens, UniProt Q05655); test: Competitive 3H-PDBu binding to C1b domain of PKCδ; conditions: Ki PKCδ, 3H-PDBu competition
T1 construct: Genes encoding C1b domains of human PKCα, δ, ε, θ, and PKD1 (PKCμ) were synthesized; made in house; host or cells: E. coli BL21(DE3)
Outline: (§1)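 First, the E. coli-produced human GST-C1b protein was mixed with compound and 3H-PDBu and shaken 10 min at 37° C. Next, the plate sat on ice 20 min before filtration and scintillation counting of bound tracer. Finally, IC50 fits were transformed into Ki values.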

[2] = target: T2, C1b domain of human PKCα (Homo sapiens, UniProt P17252); test: biochemical; format: binding; conditions: 3H-PDBu competition; for Ki: Ki PKCα
T2 construct: Genes encoding C1b domains of human PKCα, δ, ε, θ, and PKD1 (PKCμ) were synthesized; made in house; host or cells: E. coli BL21(DE3)
Outline: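 Competitive binding against 3H-PDBu tracer used recombinant GST-C1b fusion protein expressed in E. coli. Incubation ran 10 min at 37°C with shaking, then 20 min on ice, followed by filtration and scintillation counting of trapped 3H-PDBu. Affinity was derived using each protein preparation's experimentally determined Kd for 3H-PDBu.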

[3] = target: T3, C1b domain of human PKCε (Homo sapiens, UniProt Q02156); test: Competitive 3H-PDBu binding to C1b domain of PKCε
T3 construct: Genes encoding C1b domains of human PKCα, δ, ε, θ, and PKD1 (PKCμ) were synthesized; made in house; host or cells: E. coli BL21(DE3)
T3 sequence (Q02156 242-292 limits assumed): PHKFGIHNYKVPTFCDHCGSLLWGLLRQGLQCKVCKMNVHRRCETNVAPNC
Outline: as §1

[4] = system: A549 non-small cell lung cancer cell line; test: Proliferation of A549 (CellTiter Glo); format: cell-based; conditions: Homo sapiens, A549, 96 h, read-out: IC50 μM (A549 Cell Line)
Outline: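 A549 cells (K-Ras mutant) seeded 1,000/well, 24 h at 37° C, then treated with 3-fold serial dilutions (final DMSO ≤0.25%) for 96 h. Viability by CellTiter Glo luminescence; % inhibition vs DMSO-only Max, curve-fit to give IC50, relative IC50 and % top inhibition.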

[5] = system: Panc2.13 (Pancreatic) cell line; test: Proliferation of Panc2.13; format: cell-based; conditions: for ratio of (IC50 of K01)/(IC50 of compound), Panc2.13: value in parenthesis; for IC50: read-out: IC50 in μM Panc2.13 (Pancreatic)
Outline: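 After a 24 h settling period at 37° C, each line received compound from a 3-fold serial series with DMSO capped at 0.25%. Incubation ran 96 h before CellTiter Glo reagent was added. Inhibition % = (Max − sample)/Max × 100, with Max from DMSO-treated cells.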

[6] = system: Namalwa (Lymphoma) cell line; test: Proliferation of Namalwa; format: cell-based; conditions: for ratio of (IC50 of K01)/(IC50 of compound), Namalwa: value in parenthesis; for IC50: read-out: IC50 in μM Namalwa (Lymphoma)
Outline: (§2)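 Viability-based proliferation test on KP-4, HL-60, Namalwa and Mino at line-specific densities, 96 h treatment, CellTiter Glo read-out. IC50 values are also reported as the ratio IC50(K01)/IC50(compound), which corrects for batch differences.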

[7] = system: Mino (Lymphoma) cell line; test: Proliferation of Mino; format: cell-based; conditions: for IC50: Homo sapiens, MINO, read-out: IC50 in μM Mino (Lymphoma); for ratio of (IC50 of K01)/(IC50 of compound), Mino: value in parenthesis
Outline: as §2

T1 sequence (Q05655 230-280 limits assumed): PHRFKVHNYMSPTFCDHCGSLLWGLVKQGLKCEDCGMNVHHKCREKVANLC

SMILES	Ki [1]	Ki [2]	Ki [3]	IC50 [4]	ratio of (IC50 of K01)/(IC50 of compound), Panc2.13 [5]	IC50 [5]	ratio of (IC50 of K01)/(IC50 of compound), Namalwa [6]	IC50 [6]	IC50 [7]	ratio of (IC50 of K01)/(IC50 of compound), Mino [7]	Ki PKCα [2]
CC1=C[C@H]2[C@@]3(O)[C@H](C)C[C@]4(OC(=O)[C@@H](N)CCCCCCc5ccccc5)[C@H]([C@@H]3C=C(CO)C[C@]2(O)C1=O)C4(C)C [Compound K101-C134802]	< 5 nM	30 to 60 nM	1 to 30 nM	0.001 to 0.01 µM	57.3	0.01 to 0.03 µM	16.1	0.001 to 0.01 µM	0.001 to 0.01 µM	52.2	–
CC1=C[C@H]2[C@@]3(O)[C@H](C)C[C@]4(OC(=O)[C@H](N)CCCCCCc5ccccc5)[C@H]([C@@H]3C=C(CO)C[C@]2(O)C1=O)C4(C)C [Compound K101-C134801]	5 to 10 nM	400 to 800 nM	1 to 30 nM	0.01 to 0.03 µM	13.4	0.06 to 0.1 µM	4.93	0.01 to 0.03 µM	0.001 to 0.01 µM	21.3	–
CC1=C[C@H]2[C@@]3(O)[C@H](C)C[C@]4(OC(=O)[C@@H](N)CC5CCCCC5)[C@H]([C@@H]3C=C(CO)C[C@]2(O)C1=O)C4(C)C [Compound K101-C1327]	< 5 nM	–	1 to 30 nM	0.06 to 0.1 µM	7.1	0.1 to 0.2 µM	2.03	0.03 to 0.06 µM	0.001 to 0.01 µM	7.33	E (E=>60 nM and ≤10 nM)
CC1=C[C@H]2[C@@]3(O)[C@H](C)C[C@]4(OC(=O)[C@@H](N)[C@]56C[C@H]7C[C@H](C[C@H](C7)C5)C6)[C@H]([C@@H]3C=C(CO)C[C@]2(O)C1=O)C4(C)C [Compound K101-C1347]	< 5 nM	1 to 30 nM	5 to 10 nM	0.001 to 0.01 µM	71.7	0.01 to 0.03 µM	18.2	0.001 to 0.01 µM	0.001 to 0.01 µM	52.2	–
